Here are results for nine molecules from patent US20250296959A1, “B7-H3 TARGETING PEPTIDES AND CONSTRUCTS THEREOF” (Mariana Oncology Inc., priority 2024, published 2025).

Starred links: 1 amine or outer side, 2 acyl side, 3 side chain; linkers in the order of their positions; H or OH if unused. Positions of bridges follow the written chain, without caps; N, C: chain ends. Non-standard residues stand in square brackets, D forms with d. Residues, ends and D or L forms follow the SMILES beside them. Groups on a side chain read outwards from the residue. *: point of attachment. Ala(piperidin-4-yl) = O=C([C@H](CC1CCN([*:3])CC1)N[*:1])[*:2]; DOTA = O=C(O)CN1CCN(CC(=O)O)CCN(CC(=O)*)CCN(CC(=O)O)CC1; Trp(5-F) = N[C@@H](Cc1c[nH]c2ccc(F)cc12)C(=O)O; Pro(trans-4-F) = O=C(O)[C@@H]1C[C@@H](F)CN1; Tyr(3-F) = N[C@@H](Cc1ccc(O)c(F)c1)C(=O)O; γGlu = O=C(O)[C@H](CCC(=O)[*:2])N[*:1]; 1Nal = N[C@@H](Cc1cccc2ccccc12)C(=O)O; Ala(4-THP) = N[C@@H](CC1CCOCC1)C(=O)O; Val(3-OH) = CC(C)(O)[C@H](N)C(=O)O; Trx = NC[C@H]1CC[C@H](C(=O)O)CC1; 4Pal = N[C@@H](Cc1ccncc1)C(=O)O; Chg = N[C@H](C(=O)O)C1CCCCC1; Tle = CC(C)(C)[C@H](N)C(=O)O; hLeu = CC(C)CC[C@H](N)C(=O)O; NMeS = CN[C@@H](CO)C(=O)O; Nle = CCCC[C@H](N)C(=O)O A value given as a limit tells only on which side of the number the result lay.

This experiment has as its target T1, human 4lg B7-H3 (Homo sapiens, UniProt Q5ZPR3).
T1 sequence (Q5ZPR3 29-534): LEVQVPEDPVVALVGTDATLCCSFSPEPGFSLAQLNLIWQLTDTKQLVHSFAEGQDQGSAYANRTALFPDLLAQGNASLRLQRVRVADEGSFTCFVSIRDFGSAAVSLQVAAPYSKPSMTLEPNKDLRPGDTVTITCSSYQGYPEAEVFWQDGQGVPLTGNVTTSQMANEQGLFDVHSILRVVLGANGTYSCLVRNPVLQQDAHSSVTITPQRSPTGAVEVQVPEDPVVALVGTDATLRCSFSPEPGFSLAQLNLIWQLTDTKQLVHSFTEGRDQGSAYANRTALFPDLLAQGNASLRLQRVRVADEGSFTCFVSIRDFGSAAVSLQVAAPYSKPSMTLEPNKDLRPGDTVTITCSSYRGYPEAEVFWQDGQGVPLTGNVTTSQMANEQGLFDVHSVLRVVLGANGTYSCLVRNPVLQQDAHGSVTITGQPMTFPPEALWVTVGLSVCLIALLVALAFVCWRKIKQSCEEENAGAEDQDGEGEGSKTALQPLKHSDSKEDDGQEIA
The experiment in a line: Affinity determination by surface plasmon resonance (SPR) to 4Ig B7-H3. The following applies: 4Ig B7-H3. (In general: In SPR one partner is held on a chip, and binding of the other changes the refractive index at the surface.)

The mark [1] stands for this setting: SPR KD—25° C., 25° C. flow cell temperature.

A word on the Kd: it is the equilibrium constant for the complex coming apart. A low value points to a tighter complex. For the molecule `CC(=O)N[C@@H](CCC(C)C)C(=O)N[C@@H](Cc1ccc(O)cc1)C(=O)N[C@H]1CSSC[C@@H](C(=O)N[C@@H](Cc2c[nH]c3ccc(F)cc23)C(=O)N[C@@H](Cc2ccccc2)C(=O)N2CCC[C@H]2C(N)=O)NC(=O)[C@H](Cc2ccc(O)cc2)NC(=O)[C@H](C(C)C)NC(=O)[C@H](CC(=O)O)NC(=O)[C@H](CC2CCOCC2)NC(=O)[C@H](CCCCNC(=O)CN2CCN(CC(=O)O)CCN(CC(=O)O)CCN(CC(=O)O)CC2)NC(=O)CNC(=O)[C@H](C(C)C)NC1=O` [compound 292, Ac-hLeu-Y-C-V-G-Lys(DOTA)-ThpA-D-V-Y-C-5FW-F-Pro-CONH2] (Ac-[hLeu]YCVGK(DOTA)[Ala(4-THP)]DVYC[Trp(5-F)]FP-NH2; disulfide 3-11), the Kd under setting [1] lay within 1 to 10 nM. On the same count and under the same terms, under `CCCC[C@H](NC(C)=O)C(=O)N[C@@H](Cc1ccc(O)cc1)C(=O)N[C@H]1CSSC[C@@H](C(=O)N[C@@H](Cc2c[nH]c3ccc(F)cc23)C(=O)N[C@@H](Cc2ccccc2)C(=O)N[C@H](C(=O)N[C@H](CCCCNC(=O)CN2CCN(CC(=O)O)CCN(CC(=O)O)CCN(CC(=O)O)CC2)C(N)=O)[C@@H](C)O)NC(=O)[C@H](Cc2ccc(O)cc2)NC(=O)[C@H](C(C)C)NC(=O)[C@H](CC(=O)O)NC(=O)[C@H](Cc2ccc(O)cc2)NC(=O)[C@H](CCCCN)NC(=O)CNC(=O)[C@H](C(C)C)NC1=O` [compound 133, Ac-Nle-Y-C-V-G-K-Y-D-V-Y-C-5FW-F-Thr-dLys(DOTA)-CONH2] (Ac-[Nle]YCVGKYDVYC[Trp(5-F)]FT[dK](DOTA)-NH2; disulfide 3-11) stands 1 to 10 nM; under `CCCC[C@@H]1NC(=O)[C@H](C(C)C)NC(=O)[C@H](CC(=O)O)NC(=O)[C@H](Cc2ccncc2)NC(=O)[C@H](CCCCN)NC(=O)CNC(=O)[C@H](C(C)(C)C)NC(=O)[C@@H](NC(=O)[C@H](Cc2ccc(O)cc2)NC(=O)[C@H](CCC(C)C)NC(C)=O)CSSC[C@@H](C(=O)N[C@@H](Cc2cccc3ccccc23)C(=O)N[C@@H](Cc2ccccc2)C(=O)N(C)[C@@H](CO)C(=O)N[C@H](CCCCNC(=O)CN2CCN(CC(=O)O)CCN(CC(=O)O)CCN(CC(=O)O)CC2)C(N)=O)NC1=O` [compound 225, Ac-hLeu-Y-C-Tbg-G-K-4PyA-D-V-Nle-C-1Nal-F-NMeSer-dLys(DOTA)-CONH2] (Ac-[hLeu]YC[Tle]GK[4Pal]DV[Nle]C[1Nal]F[NMeS][dK](DOTA)-NH2; disulfide 3-11), 10 to 100 nM. Under setting [1], `CC(=O)N[C@@H](CCC(C)C)C(=O)N[C@@H](Cc1ccc(O)cc1)C(=O)N[C@H]1CSSC[C@@H](C(=O)N[C@@H](Cc2cccc3ccccc23)C(=O)N[C@@H](Cc2ccccc2)C(=O)N[C@H](C(=O)N[C@H](CCCCNC(=O)CN2CCN(CC(=O)O)CCN(CC(=O)O)CCN(CC(=O)O)CC2)C(N)=O)[C@@H](C)O)NC(=O)[C@H](Cc2ccc(O)cc2)NC(=O)[C@H](C2CCCCC2)NC(=O)[C@H](CC(=O)O)NC(=O)[C@H](Cc2ccc(O)cc2)NC(=O)[C@H](CCCCN)NC(=O)CNC(=O)[C@H](C(C)(C)C)NC1=O` [compound 180, Ac-hLeu-Y-C-Tbg-G-K-Y-D-Chg-Y-C-1Nal-F-Thr-dLys(DOTA)-CONH2] (Ac-[hLeu]YC[Tle]GKYD[Chg]YC[1Nal]FT[dK](DOTA)-NH2; disulfide 3-11) displayed a Kd of 1 to 10 nM. Still for that read-out and setting: under `CC(=O)N[C@@H](CCC(C)C)C(=O)N[C@@H](Cc1ccc(O)cc1)C(=O)N[C@H]1CSSC[C@@H](C(=O)N[C@@H](Cc2c[nH]c3ccccc23)C(=O)N[C@@H](Cc2ccccc2)C(=O)N[C@H](C(=O)N[C@H](CCCCNC(=O)CN2CCN(CC(=O)O)CCN(CC(=O)O)CCN(CC(=O)O)CC2)C(N)=O)[C@@H](C)O)NC(=O)[C@H](Cc2ccc(O)cc2)NC(=O)[C@H](C(C)C)NC(=O)[C@H](CC(=O)O)NC(=O)[C@H](Cc2ccc(O)cc2)NC(=O)[C@H](CC2CCNCC2)NC(=O)CNC(=O)[C@H](C(C)C)NC1=O` [compound 154, Ac-hLeu-Y-C-V-G-PipAla-Y-D-V-Y-C-W-F-Thr-dLys(DOTA)-CONH2] (Ac-[hLeu]YCVG[Ala(piperidin-4-yl)]YDVYCWFT[dK](DOTA)-NH2; disulfide 3-11) stands < 1 nM. With `CC(=O)N[C@@H](CCC(C)C)C(=O)N[C@@H](Cc1ccc(O)cc1)C(=O)N[C@H]1CSSC[C@@H](C(=O)N[C@@H](Cc2c[nH]c3ccc(F)cc23)C(=O)N[C@@H](Cc2ccccc2)C(=O)N[C@H](C(=O)N[C@H](CCCCNC(=O)CC[C@H](NC(=O)[C@H]2CC[C@H](CNC(=O)CN3CCN(CC(=O)O)CCN(CC(=O)O)CCN(CC(=O)O)CC3)CC2)C(=O)O)C(=O)O)C(C)(C)O)NC(=O)[C@H](Cc2ccc(O)cc2)NC(=O)[C@H](C(C)C)NC(=O)[C@H](CC(=O)O)NC(=O)[C@H](CC2CCOCC2)NC(=O)[C@H](CC2CCNCC2)NC(=O)CNC(=O)[C@H](C(C)(C)C)NC1=O` [compound 481, Ac-hLeu-Y-C-Tbg-G-PipAla-ThpA-D-V-Y-C-5FW-F-hydroxyVal-dLys(gE-tranexamate-DOTA)-COOH] (Ac-[hLeu]YC[Tle]G[Ala(piperidin-4-yl)][Ala(4-THP)]DVYC[Trp(5-F)]F[Val(3-OH)][dK]([γGlu-Trx-DOTA])-OH; disulfide 3-11), where the note is “SPR KD—37° C., 37° C. flow cell temperature”, the Kd is < 1 nM.

The molecule `CC(=O)N[C@@H](CCC(C)C)C(=O)N[C@@H](Cc1ccc(O)cc1)C(=O)N[C@H]1CSSC[C@@H](C(=O)N[C@@H](Cc2cccc3ccccc23)C(=O)N[C@@H](Cc2ccccc2)C(=O)N2C[C@H](F)C[C@H]2C(=O)O)NC(=O)[C@H](Cc2ccc(O)cc2)NC(=O)[C@H](C(C)C)NC(=O)[C@H](CC(=O)O)NC(=O)[C@H](Cc2ccncc2)NC(=O)[C@H](CCCCNC(=O)CN2CCN(CC(=O)O)CCN(CC(=O)O)CCN(CC(=O)O)CC2)NC(=O)CNC(=O)[C@H](C(C)(C)C)NC1=O` [compound 264, Ac-hLeu-Y-C-Tbg-G-Lys(DOTA)-4PyA-D-V-Y-C-1Nal-F-trans4FPro-CONH2] (Ac-[hLeu]YC[Tle]GK(DOTA)[4Pal]DVYC[1Nal]F[Pro(trans-4-F)]-OH; disulfide 3-11) had an equilibrium dissociation constant (Kd) under setting [1] of 1 to 10 nM.

Molecule `CC(=O)N[C@@H](CCC(C)C)C(=O)N[C@@H](Cc1ccc(O)cc1)C(=O)N[C@H]1CSSC[C@@H](C(=O)N[C@@H](Cc2cccc3ccccc23)C(=O)N[C@@H](Cc2ccccc2)C(=O)N(C)[C@@H](CO)C(=O)N[C@H](CCCCNC(=O)CN2CCN(CC(=O)O)CCN(CC(=O)O)CCN(CC(=O)O)CC2)C(N)=O)NC(=O)[C@H](CC2CCOCC2)NC(=O)[C@H](C(C)C)NC(=O)[C@H](CC(=O)O)NC(=O)[C@H](Cc2ccncc2)NC(=O)[C@H](CCCCN)NC(=O)CNC(=O)[C@H](C(C)(C)C)NC1=O` [compound 223, Ac-hLeu-Y-C-Tbg-G-K-4PyA-D-V-ThpA-C-1Nal-F-NMeSer-dLys(DOTA)-CONH2] (Ac-[hLeu]YC[Tle]GK[4Pal]DV[Ala(4-THP)]C[1Nal]F[NMeS][dK](DOTA)-NH2; disulfide 3-11) returned an equilibrium dissociation constant (Kd) under setting [1] of 10 to 100 nM. Same read-out and setting: under `CC(=O)N[C@@H](CCC(C)C)C(=O)N[C@@H](Cc1ccc(O)cc1)C(=O)N[C@H]1CSSC[C@@H](C(=O)N[C@@H](Cc2c[nH]c3ccccc23)C(=O)N[C@@H](Cc2ccccc2)C(=O)N[C@H](C(=O)N[C@H](CCCCNC(=O)CN2CCN(CC(=O)O)CCN(CC(=O)O)CCN(CC(=O)O)CC2)C(N)=O)[C@@H](C)O)NC(=O)[C@H](Cc2ccc(O)c(F)c2)NC(=O)[C@H](C(C)C)NC(=O)[C@H](CC(=O)O)NC(=O)[C@H](Cc2ccc(O)cc2)NC(=O)[C@H](CCCCN)NC(=O)CNC(=O)[C@H](C(C)C)NC1=O` [compound 151, Ac-hLeu-Y-C-V-G-K-Y-D-V-3FY-C-W-F-Thr-dLys(DOTA)-CONH2] (Ac-[hLeu]YCVGKYDV[Tyr(3-F)]CWFT[dK](DOTA)-NH2; disulfide 3-11) stands 1 to 10 nM.
